“And” between values parts separate entries of the source, which are not always exact repeats. Equal values may be shown once. Read-outs that look alike come from different tables or passages of the source.
Experiments:
PR = molecular target: T1, PR (Rattus norvegicus, UniProt Q63449); assay: maintenance of pregnancy test on the rat; type: in vivo; settings: ovarectomized pregnant rats; for PR in vivo ED50: pregnancy-maintaining dose, s.c. once daily with oestrone 5 μg/kg/day
T1 construct: The maintenance of pregnancy test on ovarectomized rats serves for the determination of the peripheral gestagenic activity of a compound; from tissue; host or cells: whole animal: pregnant, ovariectomized rats
T1 sequence (Q63449 1-923): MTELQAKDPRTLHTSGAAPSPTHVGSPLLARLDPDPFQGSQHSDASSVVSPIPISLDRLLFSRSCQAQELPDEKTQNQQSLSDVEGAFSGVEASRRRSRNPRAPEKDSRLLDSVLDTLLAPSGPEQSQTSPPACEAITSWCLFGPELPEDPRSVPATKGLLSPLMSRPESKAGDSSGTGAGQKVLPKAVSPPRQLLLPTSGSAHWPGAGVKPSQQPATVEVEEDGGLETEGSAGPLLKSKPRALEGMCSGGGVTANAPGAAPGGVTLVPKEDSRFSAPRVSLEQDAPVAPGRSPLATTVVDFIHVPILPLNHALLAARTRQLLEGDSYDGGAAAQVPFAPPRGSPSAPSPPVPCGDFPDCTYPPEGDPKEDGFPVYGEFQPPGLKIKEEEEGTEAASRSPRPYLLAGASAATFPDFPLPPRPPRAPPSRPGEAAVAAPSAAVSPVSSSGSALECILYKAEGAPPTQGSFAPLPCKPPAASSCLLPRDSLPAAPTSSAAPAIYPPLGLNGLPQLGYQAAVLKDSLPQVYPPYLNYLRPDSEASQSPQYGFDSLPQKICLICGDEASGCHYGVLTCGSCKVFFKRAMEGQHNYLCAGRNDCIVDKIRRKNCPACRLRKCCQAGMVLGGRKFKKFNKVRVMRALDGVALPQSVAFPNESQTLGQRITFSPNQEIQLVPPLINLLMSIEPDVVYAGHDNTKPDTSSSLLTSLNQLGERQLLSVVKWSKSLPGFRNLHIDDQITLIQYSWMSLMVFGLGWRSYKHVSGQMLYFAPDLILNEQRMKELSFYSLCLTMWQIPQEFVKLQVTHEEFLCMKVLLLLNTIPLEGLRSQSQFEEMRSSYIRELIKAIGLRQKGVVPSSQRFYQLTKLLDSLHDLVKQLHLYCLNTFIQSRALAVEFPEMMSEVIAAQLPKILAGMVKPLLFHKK
Description: Carrying out the maintenance of pregnancy test on the rat:
In pregnant rats, the removal of the corpora lutea or oophorectomy induces an abortion. By means of the exogenous administration of progestins (gestagens) in combination with a suitable dose of an oestrogen, the maintenance of pregnancy is possible. The maintenance of pregnancy test on ovarectomized rats serves for the determination of the peripheral gestagenic activity of a compound.
Rats were paired overnight during proestrus. Pairing was checked on the morning of the following day by the appraisal of a vaginal smear. The presence of the sperm was evaluated here as day 1 of a commencing pregnancy. On day 8 of the pregnancy, the animals were ovarectomized under ether anaesthesia. The treatment with test compound and exogenous oestrogen (oestrone, 5 μg/kg/day) was carried out subcutaneously once daily from day 8 to day 15 or day 21 of the pregnancy. The first administration on day 8 was carried out two hours before oophorectomy. Intact control animals were given exclusively vehicle.
At the end of the experiment (day 15 or day 21), the animals were sacrificed under a CO2 atmosphere, and live foetuses (foetuses having a beating heart) and implantation sites (early resorptions and dead foetuses including autolysis and atrophic placentas) were counted in both uterine horns. On day 22, it was moreover possible to examine foetuses for malformations. In uteri without foetuses or implantation sites, the number of nidation sites was determined by staining with 10% strength ammonium sulphide solution. The maintenance of pregnancy rate was calculated as the quotient of the number of living foetuses and the total number of nidation sites (both resorbed and dead foetuses and nidation sites). For drospirenone, this value is 3.5 mg/kg/day.

[1] = molecular target: T2, mineralcorticoid receptor (Homo sapiens, UniProt P08235); assay: MR antagonism, luciferase reporter cell line assay; type: cell-based; settings: 16 hours incubation, luminescence
T2 sequence (P08235 1-984): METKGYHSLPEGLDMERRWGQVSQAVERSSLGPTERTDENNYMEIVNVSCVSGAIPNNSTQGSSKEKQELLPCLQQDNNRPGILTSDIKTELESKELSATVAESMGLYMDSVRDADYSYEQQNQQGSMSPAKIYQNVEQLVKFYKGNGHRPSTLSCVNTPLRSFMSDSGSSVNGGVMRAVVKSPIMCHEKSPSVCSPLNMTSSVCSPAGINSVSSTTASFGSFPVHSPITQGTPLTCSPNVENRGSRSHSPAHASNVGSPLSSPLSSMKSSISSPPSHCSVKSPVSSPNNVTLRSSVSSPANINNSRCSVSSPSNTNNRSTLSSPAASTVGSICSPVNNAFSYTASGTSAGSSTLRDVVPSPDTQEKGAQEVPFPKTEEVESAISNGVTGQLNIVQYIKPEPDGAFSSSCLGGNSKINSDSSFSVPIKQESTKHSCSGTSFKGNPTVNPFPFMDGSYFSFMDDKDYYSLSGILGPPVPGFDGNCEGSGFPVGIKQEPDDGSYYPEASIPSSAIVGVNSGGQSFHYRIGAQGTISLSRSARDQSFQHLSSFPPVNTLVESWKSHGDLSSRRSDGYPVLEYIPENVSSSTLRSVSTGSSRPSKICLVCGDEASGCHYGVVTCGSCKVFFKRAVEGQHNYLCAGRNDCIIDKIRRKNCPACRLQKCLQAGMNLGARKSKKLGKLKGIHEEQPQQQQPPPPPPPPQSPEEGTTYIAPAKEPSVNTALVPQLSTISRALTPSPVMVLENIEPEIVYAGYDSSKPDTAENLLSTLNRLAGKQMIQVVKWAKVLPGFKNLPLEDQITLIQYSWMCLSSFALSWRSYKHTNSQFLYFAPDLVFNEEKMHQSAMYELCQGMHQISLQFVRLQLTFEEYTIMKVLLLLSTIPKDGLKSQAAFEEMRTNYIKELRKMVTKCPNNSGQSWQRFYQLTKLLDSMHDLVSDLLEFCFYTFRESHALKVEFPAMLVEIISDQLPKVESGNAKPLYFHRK
Description: The derivatives according to the invention having the general chemical formula 1 have a very strong gestagenic activity. […] They should therefore have in vivo potassium-retaining, natriuretic (antimeralcorticoid) action. These properties were determined using the test described below:
For the culturing of the cells used for the assay, the culture medium used was DMEM (Dulbecco's Modified Eagle Medium: […] of glucose; PAA, #E15-009) with 10% FCS (Biochrom, S0115, batch #615B), 4 mM L-glutamine, 1% penicillin/streptomycin, 1 mg/ml of G418 and 0.5 μg/ml of puromycin.
Reporter cell lines were grown in a density of 4×10^4 cells per hollow in white, nontransparent tissue culture plates in each case having 96 hollows (PerkinElmer, #P12-106-017) and kept in 6% DCC—FCS (activated carbon-treated serum, for the removal of interfering components contained in the serum). The compounds to be investigated were added eight days later, and the cells were incubated with the compounds for 16 hours. The experiments were carried out in triplicate. At the end of the incubation, the effector-containing medium was removed and replaced by lysis buffer. After luciferase assay substrate (promega, #E1501) had been added, the plates containing the 96 hollows were then introduced into a microplate luminometer (Pherastar, BMG labtech), and the luminescence was measured. The IC50 values were evaluated using software for the calculation of dose-activity relationships.

[2] = reporter cell lines, read-out: MR Antagonism IC50
[3] = MR Antagonism IC50, reporter cell lines

**Q.** Which “PR in vivo ED50” value (PR) does the source give for `C[C@]12CC[C@H]3[C@@H](CCC4=CC(=O)CC[C@@H]43)[C@@H]1[C@H]1C[C@H]1[C@@H]2C#N` [17β-Cyano-15α,16α-methylene-19-nor-androst-4-en-3-one] here?
**A.** Its value is 0.8 mg/kg/d s.c.

**Q.** What about the “MR Antagonism activity [% of the maximum effect]” value ([1]; reporter cell lines) of the same compound?
**A.** Its value is 93.01 % of the maximum effect.

**Q.** And the IC50 [1, 2]?
**A.** The IC50 was 16 nM.

**Q.** Which results are given for `C[C@]1(C#N)[C@H]2C[C@H]2[C@H]2[C@@H]3CCC4=CC(=O)CC[C@@H]4[C@H]3CC[C@@]21C` [17β-Cyano-17α-methyl-15β,16β-methylene-19-nor-androst-4-en-3-one]?
**A.** PR in vivo ED50 (PR): 0.8 mg/kg/d s.c.; MR Antagonism activity [% of the maximum effect] ([1]; reporter cell lines): 96.00 % of the maximum effect; IC50 [1, 2]: 29 nM

**Q.** With `CC[C@]1(C#N)[C@H]2C[C@H]2[C@H]2[C@@H]3CCC4=CC(=O)CC[C@@H]4[C@H]3CC[C@@]21C` [17β-Cyano-17α-ethyl-15β,16β-methylene-19-nor-androst-4-en-3-one] as the compound, how does the “PR in vivo ED50” value (PR) read?
**A.** Its value is 1.9 mg/kg/d s.c.

**Q.** What about the “MR Antagonism activity [% of the maximum effect]” value ([1]; reporter cell lines) of the same compound?
**A.** The value was 106.4 % of the maximum effect.

**Q.** What about the IC50 [1, 2] of the same compound?
**A.** The IC50 was 440 nM.

**Q.** `C[C@]12CC[C@H]3[C@@H](C=CC4=CC(=O)CC[C@@H]43)[C@@H]1[C@@H]1C[C@@H]1[C@@H]2C#N` [17β-Cyano-15β,16β-methylene-19-nor-androsta-4,6-dien-3-one] was tested. Which “PR in vivo ED50” value (PR) did it give?
**A.** The value was 3.3 mg/kg/d s.c.

**Q.** And the “MR Antagonism activity [% of the maximum effect]” value ([1]; reporter cell lines)?
**A.** The value was 108.51 % of the maximum effect.

**Q.** And the IC50 [1, 2]?
**A.** Its IC50 is 15 nM.

**Q.** For `C[C@@H]1CC2=CC(=O)CC[C@@H]2[C@H]2CC[C@@]3(C)[C@@H](CC[C@]3(C)C#N)[C@@H]21` [17β-Cyano-7α,17α-bismethyl-19-nor-androst-4-en-3-one], which “PR in vivo ED50” value (PR) is on record?
**A.** The value was 1 .0 mg/kg/d s.c.

**Q.** And the IC50 [1, 3]?
**A.** The IC50 was 31 nM.

**Q.** And the “MR Antagonism activity [% of the maximum effect]” value ([1]; reporter cell lines)?
**A.** The value was 96.20 % of the maximum effect.

**Q.** Which results are given for `CC[C@]1(C#N)[C@H]2C[C@H]2[C@H]2[C@@H]3[C@@H]4C[C@@H]4C4=CC(=O)CC[C@@H]4[C@H]3CC[C@@]21C` (single isomer, unassigned) [17β-cyano-17α-ethyl-6α,7α-methylene-15β,16β-methylene-19-nor-androst-4-en-3-one]?
**A.** PR in vivo ED50 (PR): 0.22 mg/kg/d s.c.; IC50 [1, 3]: 90.2 nM

**Q.** How did the “PR in vivo ED50” value (PR) turn out when `C[C@]1(C#N)[C@H]2C[C@H]2[C@H]2[C@@H]3C=CC4=CC(=O)CC[C@@H]4[C@H]3CC[C@@]21C` [17β-Cyano-17α-methyl-15β,16β-methylene-19-nor-androsta-4,6-dien-3-one] was run?
**A.** The value was 2.1 mg/kg/d s.c.

**Q.** What about the “MR Antagonism activity [% of the maximum effect]” value ([1]; reporter cell lines) of the same compound?
**A.** Its value is 114 % of the maximum effect.

**Q.** What about the IC50 [1, 2] of the same compound?
**A.** Its IC50 is 190 nM.

**Q.** How did the “pregnancy-maintaining dose (ED50)” value (PR; subcutaneously once daily with oestrone 5 μg/kg/day) turn out when `C[C@]12CCC(=O)C=C1[C@@H]1C[C@@H]1[C@H]1[C@@H]3[C@@H]4C[C@@H]4[C@@]4(CCC(=O)O4)[C@@]3(C)CC[C@@H]12` [drospirenone, 6β,7β-15β,16β-dimethylene-3-oxo-17-pregn-4-ene-21,17β-carbolactone, reference compound] was run?
**A.** Its value is 3.5 mg/kg/day.

**Q.** How did the “PR in vivo ED50” value (PR) turn out when `C[C@]12CC[C@H]3[C@@H](CCC4=CC(=O)CC[C@@H]43)[C@@H]1[C@@H]1C[C@@H]1[C@@H]2C#N` [17β-Cyano-15β,16β-methylene-19-nor-androst-4-en-3-one] was run?
**A.** The value was 0.84 mg/kg/d s.c.

**Q.** What about the “MR Antagonism activity [% of the maximum effect]” value ([1]; reporter cell lines) of the same compound?
**A.** The value was 95.57 % of the maximum effect.

**Q.** What about the IC50 [1, 2] of the same compound?
**A.** The IC50 was 4.5 nM.

**Q.** With `C[C@@H]1CC2=CC(=O)CC[C@@H]2[C@H]2CC[C@]3(C)[C@@H](C#N)CC[C@H]3[C@@H]21` [17β-Cyano-7α-methyl-19-nor-androst-4-en-3-one] as the compound, how does the “PR in vivo ED50” value (PR) read?
**A.** The value was 0.33 mg/kg/d s.c.

**Q.** And the “MR Antagonism activity [% of the maximum effect]” value ([1]; reporter cell lines)?
**A.** Its value is 108.02 % of the maximum effect.

**Q.** What about the IC50 [1, 2] of the same compound?
**A.** Its IC50 is 8.2 nM.

**Q.** Which IC50 [1, 3] does the source give for `C[C@@H]1CC2=CC(=O)CC[C@@H]2[C@H]2CC[C@@]3(C)[C@@H]([C@@H]4C[C@@H]4[C@@H]3C#N)[C@@H]21` (single isomer, unassigned) [17β-Cyano-15β,16β-methylene-7α-methyl-19-nor-androst-4-en-3-one] here?
**A.** The IC50 was 8.3 nM and 10.3 nM.
